Source: ChEMBL document CHEMBL1201862, “PubChem BioAssay data set” (2004)
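1) Cells in 96-well plates. 2) Compound, 48 h, 5 concentrations. 3) Linear interpolation between surrounding doses. 4) Unreached endpoint = highest concentration. The concentration for 50% growth inhibition is given as GI50.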 Calls of active or inactive are those of the source. No stated cut-off is given here; in the data, active = GI50 up to about 1.1 µM and inactive = higher.

Legend:
Experiment in all cases: inhibition of tumour cell growth, NCI panel, 48 h
SF-539 = system: SF-539
HOP-92 = system: HOP-92
CAKI-1 = system: CAKI-1
Hs-578T = system: Hs-578T
RPMI-8226 = system: RPMI-8226
SR = system: SR
U-251 = system: U-251
A549 = system: A549
NCI-H460 = system: NCI-H460
SN12C = system: SN12C
RXF 393 = system: RXF 393
MOLT-4 = system: MOLT-4
ACHN = system: ACHN
OVCAR-8 = system: OVCAR-8
HOP-62 = system: HOP-62
HT-29 = system: HT-29
SK-MEL-5 = system: SK-MEL-5
IGROV-1 = system: IGROV-1
SW-620 = system: SW-620

Measured: GI50

N#CSC1CCCCNC1=O (stereo not drawn)
inactive: SF-539 12.7 µM | HOP-92 2.78 µM | CAKI-1 11.8 µM | Hs-578T 16.1 µM | RPMI-8226 5.96 µM | SR 6 µM | U-251 11.2 µM | A549 15.1 µM | NCI-H460 12.5 µM | SN12C 14.3 µM | RXF 393 13.7 µM | MOLT-4 2.48 µM | ACHN 14.9 µM | OVCAR-8 14.7 µM | HOP-62 20.6 µM | HT-29 11.5 µM

CCC(=O)NC(NNS(=O)(=O)c1ccc(C)cc1)(C(F)(F)F)C(F)(F)F
inactive: SF-539 54 µM | HOP-92 37.6 µM | CAKI-1 > 100 µM | Hs-578T 34.2 µM | RPMI-8226 54.3 µM | SR 39.4 µM | U-251 > 10 µM | SK-MEL-5 50 µM | A549 35.7 µM | NCI-H460 33.5 µM | IGROV-1 49.4 µM | RXF 393 23.2 µM | MOLT-4 80 µM | ACHN 49.9 µM | SW-620 33.7 µM | OVCAR-8 44.9 µM | HOP-62 65.2 µM

COc1c(-c2nc3ccc(N4CCN(C)CC4)nc3[nH]2)cc(OC)c2[nH]c(COC(C)=O)nc12
inactive: SF-539 14.9 µM | HOP-92 > 100 µM | CAKI-1 > 100 µM | Hs-578T > 100 µM | SR 3.78 µM | U-251 13.8 µM | SK-MEL-5 16.2 µM | A549 39.5 µM | NCI-H460 31.6 µM | IGROV-1 65.9 µM | SN12C 20.4 µM | RXF 393 21.8 µM | ACHN 30.3 µM | SW-620 27.9 µM | OVCAR-8 50.4 µM | HOP-62 25 µM | HT-29 20.3 µM

CN1C(=O)C23CCCCC2CC1(c1ccccc1)S3 (stereo not drawn)
inactive: SF-539 > 100 µM | HOP-92 60.7 µM | CAKI-1 68.2 µM | Hs-578T 99.1 µM | RPMI-8226 49.8 µM | SR 58.5 µM | U-251 77.4 µM | SK-MEL-5 72.3 µM | A549 64.7 µM | IGROV-1 > 100 µM | SN12C 94.4 µM | RXF 393 59.2 µM | MOLT-4 38.3 µM | ACHN > 100 µM | SW-620 > 100 µM | OVCAR-8 > 100 µM | HOP-62 > 100 µM | HT-29 73.8 µM

CSc1ncnc2c1ncn2CCC#N
inactive: SF-539 > 100 µM | HOP-92 > 100 µM | CAKI-1 > 100 µM | Hs-578T > 100 µM | RPMI-8226 > 100 µM | SR > 100 µM | SK-MEL-5 > 100 µM | A549 > 100 µM | NCI-H460 > 100 µM | IGROV-1 > 100 µM | SN12C > 100 µM | RXF 393 > 100 µM | MOLT-4 > 100 µM | ACHN > 100 µM | SW-620 > 100 µM | OVCAR-8 > 100 µM | HOP-62 > 100 µM | HT-29 > 100 µM

CC(C)(C)C1=C(Br)C(Br)(C(C)(C)C)OP1(=O)c1ccccc1 (stereo not drawn)
inactive: SF-539 > 100 µM | HOP-92 > 100 µM | CAKI-1 > 100 µM | Hs-578T > 100 µM | SR > 100 µM | U-251 > 100 µM | SK-MEL-5 > 100 µM | A549 > 100 µM | NCI-H460 > 100 µM | IGROV-1 > 100 µM | SN12C > 100 µM | RXF 393 > 100 µM | ACHN > 100 µM | SW-620 > 100 µM | OVCAR-8 > 100 µM | HOP-62 > 100 µM | HT-29 > 100 µM

CCOC(=O)/C(C(C)=O)=C(\OC(C)=O)c1ccncc1C(=O)O
inactive: SF-539 > 100 µM | HOP-92 > 100 µM | CAKI-1 > 100 µM | Hs-578T > 100 µM | RPMI-8226 > 100 µM | SR > 100 µM | U-251 > 100 µM | A549 > 100 µM | NCI-H460 > 100 µM | IGROV-1 > 100 µM | SN12C > 100 µM | RXF 393 > 100 µM | MOLT-4 > 100 µM | ACHN > 100 µM | SW-620 > 100 µM | OVCAR-8 > 100 µM | HT-29 > 100 µM

C(=C\c1ccco1)/c1cccc(/C=C/c2ccco2)n1
inactive: SF-539 > 50 µM | HOP-92 > 50 µM | CAKI-1 > 50 µM | Hs-578T > 50 µM | RPMI-8226 > 50 µM | SR 33.6 µM | SK-MEL-5 > 50 µM | A549 > 50 µM | NCI-H460 > 50 µM | IGROV-1 > 50 µM | SN12C > 50 µM | RXF 393 > 50 µM | MOLT-4 > 50 µM | ACHN > 50 µM | SW-620 > 50 µM | OVCAR-8 > 50 µM | HOP-62 > 50 µM | HT-29 > 50 µM
